This passage reports MIC results from ChEMBL document CHEMBL1133057, “Synthesis and in vitro antibacterial activity of 3-[N-methyl-N-(3-methyl-1,3-thiazolium-2-yl)aminolmethyl cephalosporin derivatives” (2000).

Each structure is given as a SMILES string. ≈ marks a conversion by molar mass, not a printed value.

One assay has as its system Klebsiella aerogenes. Briefly: Compound was tested in vitro for its minimum inhibitory concentration by serial 2-fold agar dilution Muller Hinton method against Klebsiella aerogenes 1522 E. The format is functional.
Assay [1] concerns Pseudomonas aeruginosa. In words: Compound was tested in vitro for its minimum inhibitory concentration by serial 2-fold agar dilution Muller Hinton method against Pseudomonas aeruginosa 1592 E. The class given is functional.
In assay [2] the test system is Escherichia coli. Briefly: Compound was tested in vitro for its minimum inhibitory concentration by serial 2-fold agar dilution Muller Hinton method against Escherichia coli DC 0. The class given is functional.
The test system of assay [3] is Pseudomonas aeruginosa. Briefly: Compound was tested in vitro for its minimum inhibitory concentration by serial 2-fold agar dilution Muller Hinton method against Pseudomonas aeruginosa 9027. The class given is functional.
Assay [4] deals with Escherichia coli. In words: Compound was tested in vitro for its minimum inhibitory concentration by serial 2-fold agar dilution Muller Hinton method against Escherichia coli TEM. The format is functional.
Another assay relates to Salmonella typhimurium. In words: Compound was tested in vitro for its minimum inhibitory concentration by serial 2-fold agar dilution Muller Hinton method against Salmonella Typhimurium. The class given is functional, Salmonella enterica subsp. enterica serovar Typhimurium. The settings on record: Salmonella enterica.
The subject of assay [5] is Staphylococcus aureus. In words: Compound was tested in vitro for its minimum inhibitory concentration by serial 2-fold agar dilution Muller Hinton method against Staphylococcus aureus SG511. The format is functional.
The subject of assay [6] is Streptococcus pyogenes. Briefly: Compound was tested in vitro for its minimum inhibitory concentration by serial 2-fold agar dilution Muller Hinton method against Streptococcus pyogenes A77. The class given is functional.
Assay [7] has as its system Pseudomonas aeruginosa. In words: Compound was tested in vitro for its minimum inhibitory concentration by serial 2-fold agar dilution Muller Hinton method against Pseudomonas aeruginosa 1771 M. The format is functional.
The test system of assay [8] is Staphylococcus aureus. In words: Compound was tested in vitro for its minimum inhibitory concentration by serial 2-fold agar dilution Muller Hinton method against Staphylococcus aureus 285. The class given is functional.
In assay [9] the test system is Escherichia coli. In words: Compound was tested in vitro for its minimum inhibitory concentration by serial 2-fold agar dilution Muller Hinton method against Escherichia coli O 55. The format is functional.
Assay [10] relates to Staphylococcus aureus. In words: Compound was tested in vitro for its minimum inhibitory concentration by serial 2-fold agar dilution Muller Hinton method against Staphylococcus aureus 503. The class given is functional.
For assay [11], the system named is Escherichia coli. In words: Compound was tested in vitro for its minimum inhibitory concentration by serial 2-fold agar dilution Muller Hinton method against Escherichia coli 1507E. The class given is functional.
In assay [12] the test system is Escherichia coli. Briefly: Compound was tested in vitro for its minimum inhibitory concentration by serial 2-fold agar dilution Muller Hinton method against Escherichia coli DC 2. The format is functional.
The test system of assay [13] is Pseudomonas aeruginosa. In words: Compound was tested in vitro for its minimum inhibitory concentration by serial 2-fold agar dilution Muller Hinton method against Pseudomonas aeruginosa 1771. The class given is functional.
The subject of assay [14] is Streptococcus pyogenes. Briefly: Compound was tested in vitro for its minimum inhibitory concentration by serial 2-fold agar dilution Muller Hinton method against Streptococcus pyogenes A 308. The format is functional.
Assay [15] deals with Enterobacter cloacae. In words: Compound was tested in vitro for its minimum inhibitory concentration by serial 2-fold agar dilution Muller Hinton method against Enterobacter cloacae P99. The format is functional.
Assay [16] deals with Streptococcus pyogenes. Briefly: Compound was tested in vitro for its minimum inhibitory concentration by serial 2-fold agar dilution Muller Hinton method against Streptococcus pyogenes 8b. The class given is functional.
Assay [17] deals with Enterobacter cloacae. Briefly: Compound was tested in vitro for its minimum inhibitory concentration by serial 2-fold agar dilution Muller Hinton method against Enterobacter cloacae 1321. The format is functional.
The next assay deals with Klebsiella oxytoca. Briefly: Compound was tested in vitro for its minimum inhibitory concentration by serial 2-fold agar dilution Muller Hinton method against Klebsiella oxytoca 1082 E. The class given is functional.

Regarding `CCOC(=O)c1sc(N(C)CC2=C(C(=O)[O-])N3C(=O)C(NC(=O)/C(=N\OC)c4csc(N)n4)C3SC2)[n+](C)c1C` (stereo not given), the MIC came to 0.049 µg/mL (≈ 0.0804 µM) in the assay with Klebsiella aerogenes; 50 µg/mL (≈ 82 µM) with Pseudomonas aeruginosa [1]; 0.098 µg/mL (≈ 0.161 µM) with Escherichia coli [2]; 100 µg/mL (≈ 164 µM) in the assay with Pseudomonas aeruginosa [3]; 0.195 µg/mL (≈ 0.32 µM) against Escherichia coli [4]; 0.049 µg/mL (≈ 0.0804 µM) with Salmonella typhimurium. In addition, the MIC came out at 1.56 µg/mL (≈ 2.56 µM) against Staphylococcus aureus [5]; 0.004 µg/mL (≈ 0.00656 µM) in the assay with Streptococcus pyogenes [6]; 1.56 µg/mL (≈ 2.56 µM) against Pseudomonas aeruginosa [7]; 1.56 µg/mL (≈ 2.56 µM) in the assay on Staphylococcus aureus [8]; 0.049 µg/mL (≈ 0.0804 µM) against Escherichia coli [9]; 0.781 µg/mL (≈ 1.28 µM) against Staphylococcus aureus [10]. Moreover, the minimum inhibitory concentration (MIC) in the assay with Escherichia coli [11] stood at 0.098 µg/mL (≈ 0.161 µM); against Escherichia coli [12] it was 0.049 µg/mL (≈ 0.0804 µM); against Pseudomonas aeruginosa [13] it was 25 µg/mL (≈ 41 µM); against Streptococcus pyogenes [14], 0.007 µg/mL (≈ 0.0115 µM); in the assay with Enterobacter cloacae [15], 3.12 µg/mL (≈ 5.13 µM); against Streptococcus pyogenes [16] it was 25 µg/mL (≈ 41 µM). The MIC against Enterobacter cloacae [17] was 0.025 µg/mL (≈ 0.041 µM); in the assay on Klebsiella oxytoca, 6.25 µg/mL (≈ 10.3 µM).

With `CO/N=C(\C(=O)NC1C(=O)N2C(C(=O)[O-])=C(CN(C)c3sc(C(N)=O)c(C)[n+]3C)CSC12)c1csc(N)n1` (stereo not given), the MIC in the assay with Klebsiella aerogenes stood at 0.025 µg/mL (≈ 0.0431 µM); in the assay on Pseudomonas aeruginosa [1], 25 µg/mL (≈ 43.1 µM); in the assay with Escherichia coli [2] it was 0.049 µg/mL (≈ 0.0844 µM); with Pseudomonas aeruginosa [3], 50 µg/mL (≈ 86.1 µM); in the assay with Escherichia coli [4], 0.049 µg/mL (≈ 0.0844 µM); with Salmonella typhimurium, 0.049 µg/mL (≈ 0.0844 µM). The MIC was determined as 0.391 µg/mL (≈ 0.673 µM) in the assay with Staphylococcus aureus [5]; 0.007 µg/mL (≈ 0.0121 µM) in the assay with Streptococcus pyogenes [6]; 0.781 µg/mL (≈ 1.34 µM) against Pseudomonas aeruginosa [7]; 0.781 µg/mL (≈ 1.34 µM) in the assay on Staphylococcus aureus [8]; 0.025 µg/mL (≈ 0.0431 µM) in the assay on Escherichia coli [9]; 0.195 µg/mL (≈ 0.336 µM) with Staphylococcus aureus [10]. The MIC in the assay on Escherichia coli [11] is 0.049 µg/mL (≈ 0.0844 µM); against Escherichia coli [12] it was 0.025 µg/mL (≈ 0.0431 µM); in the assay on Pseudomonas aeruginosa [13], 6.25 µg/mL (≈ 10.8 µM); against Streptococcus pyogenes [14], 0.007 µg/mL (≈ 0.0121 µM); in the assay with Enterobacter cloacae [15], 6.25 µg/mL (≈ 10.8 µM); in the assay with Streptococcus pyogenes [16] it was 12.5 µg/mL (≈ 21.5 µM). The MIC amounted to 0.013 µg/mL (≈ 0.0224 µM) in the assay with Enterobacter cloacae [17] and 3.12 µg/mL (≈ 5.38 µM) against Klebsiella oxytoca.

As for `CCO/N=C(\C(=O)NC1C(=O)N2C(C(=O)[O-])=C(CN(C)c3sc4c([n+]3C)CCCC4)CSC12)c1csc(N)n1` (stereo not given), the MIC was 0.098 µg/mL (≈ 0.166 µM) against Klebsiella aerogenes; 25 µg/mL (≈ 42.2 µM) in the assay with Pseudomonas aeruginosa [1]; 0.098 µg/mL (≈ 0.166 µM) against Escherichia coli [2]; 25 µg/mL (≈ 42.2 µM) against Pseudomonas aeruginosa [3]; 0.195 µg/mL (≈ 0.33 µM) with Escherichia coli [4]; 0.098 µg/mL (≈ 0.166 µM) against Salmonella typhimurium. Also, the MIC in the assay on Staphylococcus aureus [5] is 0.391 µg/mL (≈ 0.661 µM); in the assay on Streptococcus pyogenes [6] it was 0.007 µg/mL (≈ 0.0118 µM); against Pseudomonas aeruginosa [7] it was 0.391 µg/mL (≈ 0.661 µM); in the assay on Staphylococcus aureus [8], 0.781 µg/mL (≈ 1.32 µM); against Escherichia coli [9], 0.049 µg/mL (≈ 0.0828 µM); with Staphylococcus aureus [10], 0.195 µg/mL (≈ 0.33 µM). Also, the minimum inhibitory concentration (MIC) with Escherichia coli [11] is 0.195 µg/mL (≈ 0.33 µM); in the assay on Escherichia coli [12] it was 0.025 µg/mL (≈ 0.0422 µM); with Pseudomonas aeruginosa [13], 6.25 µg/mL (≈ 10.6 µM); against Streptococcus pyogenes [14], 0.013 µg/mL (≈ 0.022 µM); with Enterobacter cloacae [15], 6.25 µg/mL (≈ 10.6 µM); with Streptococcus pyogenes [16], 25 µg/mL (≈ 42.2 µM). Besides, the MIC against Enterobacter cloacae [17] turned out to be 0.049 µg/mL (≈ 0.0828 µM); against Klebsiella oxytoca, 3.12 µg/mL (≈ 5.28 µM).

`CO/N=C(\C(=O)NC1C(=O)N2C(C(=O)[O-])=C(CN(C)c3scc(C)[n+]3C)CSC12)c1csc(N)n1` (stereo not given): the MIC with Klebsiella aerogenes is 0.049 µg/mL (≈ 0.0911 µM); with Pseudomonas aeruginosa [1] it was 25 µg/mL (≈ 46.5 µM); in the assay with Escherichia coli [2], 0.049 µg/mL (≈ 0.0911 µM); in the assay with Pseudomonas aeruginosa [3] it was 25 µg/mL (≈ 46.5 µM); against Escherichia coli [4] it was 0.049 µg/mL (≈ 0.0911 µM); with Salmonella typhimurium it was 0.049 µg/mL (≈ 0.0911 µM). In addition, the MIC amounted to 0.781 µg/mL (≈ 1.45 µM) against Staphylococcus aureus [5]; 0.004 µg/mL (≈ 0.00744 µM) in the assay with Streptococcus pyogenes [6]; 1.56 µg/mL (≈ 2.91 µM) against Pseudomonas aeruginosa [7]; 1.56 µg/mL (≈ 2.91 µM) in the assay with Staphylococcus aureus [8]; 0.025 µg/mL (≈ 0.0465 µM) with Escherichia coli [9]; 0.781 µg/mL (≈ 1.45 µM) with Staphylococcus aureus [10]. The MIC with Escherichia coli [11] was 0.049 µg/mL (≈ 0.0911 µM); in the assay on Escherichia coli [12] it was 0.049 µg/mL (≈ 0.0911 µM); with Pseudomonas aeruginosa [13] it was 12.5 µg/mL (≈ 23.2 µM); in the assay on Streptococcus pyogenes [14], 0.013 µg/mL (≈ 0.0242 µM); against Enterobacter cloacae [15], 25 µg/mL (≈ 46.5 µM); against Streptococcus pyogenes [16], more than 100 µg/mL. Besides, the values for the MIC in the assay on Enterobacter cloacae [17] and with Klebsiella oxytoca were 0.013 µg/mL (≈ 0.0242 µM) and 6.25 µg/mL (≈ 11.6 µM), respectively.

As to `CO/N=C(\C(=O)NC1C(=O)N2C(C(=O)[O-])=C(CN(C)c3sc(C)c(C)[n+]3C)CSC12)c1csc(N)n1` (stereo not given), the minimum inhibitory concentration (MIC) against Klebsiella aerogenes was found to be 0.098 µg/mL (≈ 0.178 µM); against Pseudomonas aeruginosa [1], 50 µg/mL (≈ 90.6 µM); in the assay with Escherichia coli [2], 0.049 µg/mL (≈ 0.0888 µM); in the assay on Pseudomonas aeruginosa [3] it was 50 µg/mL (≈ 90.6 µM); with Escherichia coli [4] it was 0.049 µg/mL (≈ 0.0888 µM); against Salmonella typhimurium, 0.098 µg/mL (≈ 0.178 µM). The MIC in the assay with Staphylococcus aureus [5] is 1.56 µg/mL (≈ 2.83 µM); against Streptococcus pyogenes [6], 0.007 µg/mL (≈ 0.0127 µM); against Pseudomonas aeruginosa [7] it was 1.56 µg/mL (≈ 2.83 µM); in the assay with Staphylococcus aureus [8], 1.56 µg/mL (≈ 2.83 µM); in the assay on Escherichia coli [9] it was 0.025 µg/mL (≈ 0.0453 µM); in the assay with Staphylococcus aureus [10] it was 0.781 µg/mL (≈ 1.42 µM). Moreover, the MIC is 0.049 µg/mL (≈ 0.0888 µM) against Escherichia coli [11]; 0.098 µg/mL (≈ 0.178 µM) against Escherichia coli [12]; 25 µg/mL (≈ 45.3 µM) against Pseudomonas aeruginosa [13]; 0.013 µg/mL (≈ 0.0236 µM) against Streptococcus pyogenes [14]; 12.5 µg/mL (≈ 22.7 µM) in the assay on Enterobacter cloacae [15]; more than 100 µg/mL in the assay on Streptococcus pyogenes [16]. For the same molecule, the values for the MIC in the assay on Enterobacter cloacae [17] and in the assay with Klebsiella oxytoca were 0.013 µg/mL (≈ 0.0236 µM) and 6.25 µg/mL (≈ 11.3 µM), respectively.
